# Calls of active or inactive are those of the source. The rule behind the calls is not given here.
# How the values were obtained:
# [1] = test system: Staphylococcus aureus; experiment: Antibacterial activity against methicillin-resistant Staphylococcus aureus ATCC 33592 in peritoneal dialysis fluid administered as bolus dose 2 hrs after infection measured after 24 hrs by broth dilution method; assay type: functional
# [2] = test system: Staphylococcus aureus; experiment: Antibacterial activity against methicillin-susceptible Staphylococcus aureus ATCC 29213 in peritoneal dialysis fluid administered as bolus dose 2 hrs after infection measured after 24 hrs by broth dilution method; assay type: functional
# [3] = Protein binding in mouse plasma at 0.1 to 100 ug/mL by equilibrium dialysis; assay type: ADME, cell-free; conditions: read-out: PB (converted)
# [4] = test system: Staphylococcus aureus; experiment: Antibacterial activity against methicillin-susceptible Staphylococcus aureus ATCC 29213 in peritoneal dialysis fluid at 50 ug/mL administered as bolus dose 2 hrs after infection measured after 24 hrs by time-kill study; assay type: functional, organism-based
# [5] = test system: Staphylococcus aureus; experiment: Antibacterial activity against methicillin-susceptible Staphylococcus aureus ATCC 29213 in peritoneal dialysis fluid at 10 ug/mL administered as bolus dose 2 hrs after infection measured after 24 hrs by time-kill study; assay type: functional, organism-based
# [6] = test system: Staphylococcus aureus; experiment: Antibacterial activity against methicillin-resistant Staphylococcus aureus ATCC 33592 in peritoneal dialysis fluid at 10 ug/mL administered as bolus dose 2 hrs after infection measured after 24 hrs by time-kill study; assay type: functional, organism-based
# [7] = test system: Staphylococcus aureus; experiment: Antibacterial activity against methicillin-resistant Staphylococcus aureus ATCC 33592 in peritoneal dialysis fluid at 50 ug/mL administered as bolus dose 2 hrs after infection measured after 24 hrs by time-kill study; assay type: functional, organism-based
Structure (SMILES),MIC [1] [mg/L],MIC [2] [mg/L],fraction unbound [3],Activity [4],Activity [5],Activity [6],Activity [7]
Cc1nnc(SCC2=C(C(=O)O)N3C(=O)[C@@H](NC(=O)Cn4cnnn4)[C@H]3SC2)s1 [CEFAZOLIN],> 16,0.5,–,–,–,–,–
CCCCCCCCCCNCCN[C@@]1(C)C[C@H](O[C@H]2[C@H](Oc3c4cc5cc3Oc3ccc(cc3Cl)[C@@H](O)[C@@H](NC(=O)[C@@H](CC(C)C)NC)C(=O)N[C@@H](CC(N)=O)C(=O)N[C@H]5C(=O)N[C@H]3C(=O)N[C@H](C(=O)N[C@H](C(=O)O)c5cc(O)c(CNCP(=O)(O)O)c(O)c5-c5cc3ccc5O)[C@H](O)c3ccc(c(Cl)c3)O4)O[C@H](CO)[C@@H](O)[C@@H]2O)O[C@@H](C)[C@H]1O [TELAVANCIN],0.125,0.25,0.05,Active,Active,Active,Active
